Source: ChEMBL document CHEMBL1240440, “A bioactive labdane diterpenoid from Curcuma amada and its semisynthetic analogues as antitubercular agents” (2010)
Values after ≈ are worked out from the molar mass of the structure shown.

system: Mycobacterium tuberculosis; test: Antitubercular activity against Mycobacterium tuberculosis H37Rv ATCC 27294 after 24 hrs by BACTEC radiometric susceptibility assay; format: functional; conditions: H37Rv ATCC 27294, 24 h

**Q.** For `C=C1CC[C@H]2C(C)(C)CCC[C@]2(C)[C@H]1C/C=C(/C=O)CC=O`, which MIC is on record?
**A.** Its MIC is 500 µg/mL (≈ 1650 µM).

**Q.** How did the MIC turn out when `C=C1CC[C@H]2C(C)(C)CCC[C@]2(C)[C@H]1C/C=C(/CO)CCO` was run?
**A.** Its MIC is 250 µg/mL (≈ 816 µM).

**Q.** With `C=C1CC[C@H]2C(C)(C)CCC[C@]2(C)[C@H]1C/C=C(\CCOC(C)=O)COC(C)=O` as the compound, how does the MIC read?
**A.** Its MIC is greater than 1000 µg/mL.

**Q.** `C=C1CC[C@H]2C(C)(C)CCC[C@]2(C)[C@H]1C/C=C(/C=N/O)C/C=N/O` was tested. Which MIC did it give?
**A.** Its MIC is 500 µg/mL (≈ 1500 µM).

**Q.** Which MIC does the source give for `CO[C@H]1/C=C/O[C@@]2(C)Oc3c(C)c(O)c4c(O)c(c(/C=N/N5CCN(C)CC5)c(O)c4c3C2=O)NC(=O)/C(C)=C\C=C\[C@H](C)[C@H](O)[C@@H](C)[C@@H](O)[C@@H](C)[C@H](OC(C)=O)[C@@H]1C` [RIFAMPIN] here?
**A.** The MIC was 2 µg/mL (≈ 2.43 µM).

**Q.** With `CN[C@@H]1[C@H](O[C@H]2[C@H](O[C@H]3[C@H](O)[C@@H](O)[C@H](N=C(N)N)[C@@H](O)[C@@H]3N=C(N)N)O[C@@H](C)[C@]2(O)C=O)O[C@@H](CO)[C@H](O)[C@H]1O` [STREPTOMYCIN] as the compound, how does the MIC read?
**A.** Its MIC is 2 µg/mL (≈ 3.44 µM).
